Experiment [1] has as its system HEK293 SMAD2p luciferase reporter cells transfected to stably express full length human LRRC15. The experiment in a line: Cell reporter assay of anti-LRRC15 antibody drug conjugates (SMAD2p luciferase). To be noted: linker-payload conjugated to anti-LRRC15 antibody; human TGFβ1 1.6 ng/ml; absolute EC50. The format is cell-based. From the text: The linker payloads in Table 8 were covalently attached to an anti-LRRC15 antibody. The LRRC15 antibody is the murine M25 antibody or a humanized variant thereof (see PCT Application Publication No. WO 2017/095805, incorporated herein by reference in its entirety). Conjugation to the linker-payload is via the interchain disulfides. The antibodies have either a wild-type Fc domain or a null Fc domain. The Fcnull mutations for human IgG1 are L234A, L236A, G237A, and K322A and the Fcnull mutations for murine IgG2a are L234A, L236A, G237A, K322A, and P329G; numbering by EU index.
The resultant antibody drug conjugates were tested via a cell reporter assay. HEK293 SMAD2p luciferase reporter cells transfected to stably express full length human LRRC15 were seeded in 96 well plates at 40,000 cells/well in an assay media of MEM +0.5% FBS, 1% NEAA, 1% NaPyr & 1% Pen/Strep. Conjugates and controls were added to wells in a dose titration ranging from 500 nM to 0.03 nM. After 24 hours of culture at 37° C. in a 5% CO2 environment human TGFβ1 was added (PeproTech Inc.) to a final concentration of 1.6 ng/ml followed by an additional 18 hour of culture. Luciferase Steady Glo reagent (Promega Corporation) was added as recommended by manufacturer. After incubating 10 minutes with shaking, SMAD2p activity was determined by measuring luminescence with an Envision Plate Reader (Perkin-Elmer Inc.) and an absolute EC50 was determined using Prism Software v8.01 (GraphPad Inc.).

Experiment [2] relates to TGFβ/SMAD Singling Pathway SBE reporter cell line. The experiment in a line: TGFβ reporter assay (in vitro small molecule screening). It counts as cell-based. As to conditions: SBE luciferase reporter cells, TGFβ stimulation, 18 h, luminescence. As to the method: TGFβ/SMAD Singling Pathway SBE reporter cell line was obtained from BPS Bioscience. Cells were passed, expanded, and stored in liquid nitrogen as per the supplier's instructions with the exception that growth media is changed to DMEM-C with Geneticin (DMEM supplemented with 10% fetal bovine serum, 1×NEAA, 1 mM Pyruvate, 2 mM glutamine, 50 μg/mL penicillin, 50 U/mL streptomycin and 400 μg/mL of Geneticin). The assay media was MEM supplemented with […] fetal bovine serum, 1×NEAA, 1 mM Pyruvate, 50 μg/mL penicillin and 50 U/mL streptomycin.
Test samples (at desired concentrations diluted in assay media) were added to a 96-well assay plate, 20 μL per well. Reporter cells were harvested from the tissue culture flasks by incubation in small quantity of PBS at 37° C. for two minutes after the media in the flask is removed and cells rinsed with PBS. Cells were counted and diluted in the assay media at approximately 0.5×10^6 cells/mL and then 80 μL/well of cells were added to the assay plate containing the 20 μL/well of test samples (or media only), and incubated for approximately 5-6 hours at 37° C. in a 5% CO2 humidified incubator. After that time, 15 μL of TGFβ diluted to 12 ng/mL in the assay media was added to the plate. Controls included TGFβ titration (from 50 to 0 ng/mL) without inhibitors, and media only (without cells, inhibitor or TGFβ). Plates were incubated at 37° C. in a 5% CO2 humidified incubator for 18 h. Luciferase substrate solution is subsequently added at 100 μL per well, incubated in the dark at room temperature for 15 min, and luminescence is measured using a luminometer. EC50 values and curve fits were obtained using Prism (GraphPad Software).

Another experiment has as its target T1, TGFBR2 (Homo sapiens, UniProt P37173).
T1 construct: purchased Reaction Biology Corp
The experiment in a line: TGFBR2 RBC enzyme assay (Reaction Biology Corp.). The format is biochemical. As to the method: Compounds of the disclosure were assayed by Reaction Biology Corp. using the TGFBR2 RBC enzyme assay.

The values below come from patent publication US20220169660A1, “CYCLIC AMINO-PYRAZINECARBOXAMIDE COMPOUNDS AND USES THEREOF” (SILVERBACK THERAPEUTICS, INC., priority 2019, published 2022).

One may read the EC50 as the midpoint of the concentration-response curve. The low end stands for a more potent agent, the high end for a less potent agent.

Some results are limits rather than exact numbers.

T1 sequence (P37173 23-567): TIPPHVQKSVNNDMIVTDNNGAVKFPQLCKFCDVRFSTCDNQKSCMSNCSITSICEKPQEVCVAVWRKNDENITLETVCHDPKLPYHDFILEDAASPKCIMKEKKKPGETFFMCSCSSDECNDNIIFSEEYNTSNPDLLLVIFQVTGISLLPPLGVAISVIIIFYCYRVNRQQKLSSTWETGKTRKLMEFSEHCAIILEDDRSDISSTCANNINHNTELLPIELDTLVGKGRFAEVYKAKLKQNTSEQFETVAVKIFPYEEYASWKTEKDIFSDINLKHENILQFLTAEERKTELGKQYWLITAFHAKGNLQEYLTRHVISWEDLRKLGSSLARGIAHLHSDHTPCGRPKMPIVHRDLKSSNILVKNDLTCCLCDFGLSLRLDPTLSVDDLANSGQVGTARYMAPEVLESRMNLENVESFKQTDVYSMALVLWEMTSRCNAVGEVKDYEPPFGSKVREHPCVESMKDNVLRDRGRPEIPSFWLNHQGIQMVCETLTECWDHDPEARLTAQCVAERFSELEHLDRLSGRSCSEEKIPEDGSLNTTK

“4-((S)-2-((S)-2-(6-(2,5-dioxo-2,5-dihydro-1H-pyrrol-1-yl)hexanamido)-3-methylbutanamido)-5-ureidopentanamido)benzyl (3-((2^5-amino-6-methyl-3-oxo-10-oxa-4,6-diaza-2(2,6)-pyrazina-5(3,4)-pyridina-1(1,3)-benzenacyclodecaphane-15-yl)oxy)propyl)carbamate [Compound B-16]” registered an EC50 in experiment [1] of 1 to 1000 nM.
As for `CN1C[C@@H](CN)Oc2ccccc2-c2cnc(N)c(n2)C(=O)Nc2cnccc21` [Compound 60, (R)-2^5-amino-8-(aminomethyl)-6-methyl-9-oxa-4,6-diaza-2(2,6)-pyrazina-5(3,4)-pyridina-1(1,2)-benzenacyclononaphan-3-one], the EC50 was 1000 to 5000 nM in experiment [2] and more than 1000 nM on TGFBR2.
The like results for `CN1CCCOc2cc(ccc2OCCCN)-c2cnc(N)c(n2)C(=O)Nc2cnccc21` [Compound 61, 2^5-amino-1^4-(3-aminopropoxy)-6-methyl-10-oxa-4,6-diaza-2(2,6)-pyrazina-5(3,4)-pyridina-1(1,3)-benzenacyclodecaphan-3-one] were, in that order, 1 to 1000 nM and 1 to 100 nM.
On the same counts, the results for `CN1CCCOc2cc(ccc2CCCCN)-c2cnc(N)c(n2)C(=O)Nc2cnccc21` [Compound 62, 2^5-amino-1^4-(4-aminobutyl)-6-methyl-10-oxa-4,6-diaza-2(2,6)-pyrazin-5(3,4)-pyridina-1(1,3)-benzenacyclodecaphan-3-one] are 1 to 1000 nM and 1 to 100 nM.
As for `CN1CCCCc2cc(ccc2OCCCN)-c2cnc(N)c(n2)C(=O)Nc2cnccc21` [Compound 63, 2^5-amino-1^4-(3-aminopropxy)-6-methyl-4,6-diaza-2(2,6)-pyrazina-5(3,4)-pyridina-1(1,3)-benzenacyclodecaphan-3-one], the EC50 is 1 to 1000 nM in experiment [2] and 1 to 100 nM on TGFBR2.
Consider `CN1CCOc2ccc(OCCCN)cc2-c2cnc(N)c(n2)C(=O)Nc2cnccc21` [Compound 64, 2^5-amino-1^5-(3-aminopropoxy)-6-methyl-9-oxa-4,6-diaza-2(2,6)-pyrazina-5(3,4)-pyridina-1(1,2)-benzenacyclononaphan-3-one], for which the EC50 lay within 1 to 1000 nM in experiment [2] and 1 to 100 nM at TGFBR2.
In the case of `CN1CCOc2cc(OCCCN)ccc2-c2cnc(N)c(n2)C(=O)Nc2cnccc21` [Compound 65, 2^5-amino-1^4-(3-aminopropoxy)-6-methyl-9-oxa-4,6-diaza-2(2,6)-pyrazina-5(3,4)-pyridina-1(1,2)-benzenacyclononaphan-3-one], the half-maximal effective concentration (EC50) in experiment [2] fell in the range of 1 to 1000 nM; at TGFBR2, 1 to 100 nM.
The compound `CC(C)[C@H](NC(=O)CCOCCOCCOCCOCCN1C(=O)C=CC1=O)C(=O)N[C@@H](CCCNC(N)=O)C(=O)Nc1ccc(COC(=O)NCCCOc2ccc3cc2OCCCN(C)c2ccncc2NC(=O)c2nc-3cnc2N)cc1` [Compound B-61] yielded a concentration for a half-maximal effect (EC50) in experiment [1] of 1 to 1000 nM.
For `CC(C)[C@H](NC(=O)CCOCCOCCOCCOCCN1C(=O)C=CC1=O)C(=O)N[C@@H](CCCNC(N)=O)C(=O)Nc1ccc(COC(=O)NCCCCc2ccc3cc2CCCCN(C)c2ccncc2NC(=O)c2nc-3cnc2N)cc1` [Compound B-62], the half-maximal effective concentration (EC50) in experiment [1] lay within 1 to 1000 nM.
Still for that read-out and setting: as for `CC(C)[C@H](NC(=O)CCOCCOCCOCCOCCN1C(=O)C=CC1=O)C(=O)N[C@@H](CCCNC(N)=O)C(=O)Nc1ccc(COC(=O)NCCCOc2ccc3cc2CCCCN(C)c2ccncc2NC(=O)c2nc-3cnc2N)cc1` [Compound B-63], the figure is 1 to 1000 nM.
The same measure, in the same setting: as for `CC(C)[C@H](NC(=O)CCOCCOCCOCCOCCN1C(=O)C=CC1=O)C(=O)N[C@@H](CCCNC(N)=O)C(=O)Nc1ccc(COC(=O)NCCCOc2ccc3c(c2)-c2cnc(N)c(n2)C(=O)Nc2cnccc2N(C)CCO3)cc1` [Compound B-64], the figure is 1 to 1000 nM; as for `CC(C)[C@H](NC(=O)CCOCCOCCOCCOCCN1C(=O)C=CC1=O)C(=O)N[C@@H](CCCNC(N)=O)C(=O)Nc1ccc(COC(=O)NCCCOc2ccc3c(c2)OCCN(C)c2ccncc2NC(=O)c2nc-3cnc2N)cc1` [Compound B-65], 1 to 1000 nM.
